{
  "source": "paper PMC6178282",
  "about": "“Comparative cell biological study of in vitro antitumor and antimetastatic activity on melanoma cells of GnRH-III-containing conjugates modified with short-chain fatty acids” (Beilstein Journal of Organic Chemistry, 2018)",
  "key": {"A2058 cells [1]": {"test_system": "A2058 cells", "test": "Inhibition assay for phosphatidylinositol 3-kinase (pretreatment with wortmannin or LY294002, alamarBlue viability)", "format": "cell-based, human", "conditions": "then compound 10^−5 M for 48 h, from averages of 6 parallels", "method": "The association of PI3K activation with the antitumor activity of the conjugates was determined by pretreating the cells with PI3K inhibitors (wortmannin – W and LY294002 – LY). The antitumor effect of the conjugates and Dau on the cells pretreated with PI3K inhibitors or with DMSO (solvent of the inhibitors) was assessed by an alamarBlue-assay after 48 h of incubation. The results of the PI3K-assay were given by calculating the inhibition index as the ratio of the viability of the pretreated and control (DMSO-treated) cell populations being incubated with medium or conjugates (10^−5 M). […]\nwas measured with LS-50B Luminescence Spectrometer (Perkin Elmer Ltd., Buckinghamshire United Kingdom) by using λ = 560 nm for excitation and λ = 590 nm for detection of the emitted light.\nEach data represents the mathematical average of six parallels. The decrease in the fluorescence intensity caused by the different treatments was normalized to the identical control and this value was given as ‘Viability’ in percent. […]\nA2058 cells were prepared in 96-well plates as it was aforementioned in ‘Cell proliferation and cytotoxicity measurement’ section. […] The number of viable cells was determined by the alamarBlue-assay as it was described in ‘Cell proliferation and cytotoxicity measurement’ chapter. To analyze the effects of inhibitors on the actions of conjugates, the inhibition index was calculated by […]"}, "A2058 cells [2]": {"test_system": "A2058 cells", "test": "Cell adhesion measurement, xCELLigence impedimetry", "format": "cell-based, human", "conditions": "Delta CI at 3 h normalized to control, three parallels", "excerpt": "The first crucial steps in metastasis cascade are the impaired adhesion contacts and in parallel the increased motility of tumor cells. These two events substantially provide for tumor cells to detach from the primary tumor and migrate to the surrounding tissue. Besides the tumor-selective antiproliferative/cytotoxic activity of the conjugates, they could be also desired to have an ability to interfere with the dissemination of cancer cells by modulating their adhesion and migration. In order to evaluate the conjugates as antimetastatic therapeutics, their effects on melanoma cell adhesion were investigated by the impedance-based xCELLigence System. The cell adhesion modulator effects of compounds were characterized by Delta Cell index values. […]\nThe effect of Dau-GnRH-III conjugates on cell adhesion of model cell was assessed using the xCELLigence SP System ( ACEA Biosciences, San Diego, CA, USA).\nThe adhesion assay, analogous to the description in [5], was started with a background measurement as mentioned above in the section “Cell proliferation and cytotoxicity measurement”. […] The adhesion of A2058 cells was monitored every 20 sec for at least 12 h at 10 kHz.\nThe attachment and spreading of model cell were characterized by a time-course study of the Delta CI values. The Delta CI values were calculated by the integrated software (RTCA 2.0). […]"}},
  "data": [
    {"compound": "COc1cccc2c1C(=O)c1c(O)c3c(c(O)c1C2=O)C[C@@](O)(C(C)=O)C[C@@H]3O[C@H]1C[C@H](N)[C@H](O)[C@H](C)O1", "note": "[daunorubicin]", "values": [
      {"measurement": "inhibition index, LY294002", "setting": "A2058 cells [1]; A2058 cells pretreated 30 min with LY294002 (15 μM)", "value": "100.7 ± 4.0", "unit": "%"},
      {"measurement": "inhibition index, wortmannin", "setting": "A2058 cells [1]; A2058 cells pretreated 30 min with wortmannin (50 nM)", "value": "121.0 ± 8.1", "unit": "%"},
      {"measurement": "effect on cell adhesion (Delta Cell index)", "setting": "A2058 cells [2]; 10^−5 M", "value": "decrease"},
      {"measurement": "concentrations at which adhesion of A2058 cells was increased (Delta Cell index)", "setting": "A2058 cells [2]; tested 10^−8–10^−5 M", "value": "10^−8 to 10^−7 M"}
    ]}
  ]
}
